Entries after “also recorded” stand apart in the source; their conditions may differ.
Biological target: T1, CD38 NAD^+ glycohydrolase (Mus musculus, UniProt P56528)
T1 construct: The individual brain regions were homogenized and centrifuged at low speed to sediment the unbroken cells and the nuclear fraction; from tissue; host or cells: mouse (C57BL/6) brain regions (cortex, striatum, hippocampal CA1, CA3-DG), low-speed supernatant of homogenate
T1 sequence (P56528 1-304): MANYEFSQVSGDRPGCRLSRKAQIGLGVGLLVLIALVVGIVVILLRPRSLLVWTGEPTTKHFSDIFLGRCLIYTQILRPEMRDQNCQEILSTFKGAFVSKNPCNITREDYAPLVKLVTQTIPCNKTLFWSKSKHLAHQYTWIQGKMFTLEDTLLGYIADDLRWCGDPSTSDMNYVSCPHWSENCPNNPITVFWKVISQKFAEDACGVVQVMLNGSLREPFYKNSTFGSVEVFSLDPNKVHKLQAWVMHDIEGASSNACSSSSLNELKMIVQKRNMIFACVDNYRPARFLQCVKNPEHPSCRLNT
Assay: NAD+ glycohydrolase activity (1-etheno-NAD hydrolysis) in brain region homogenates
Assay type: biochemical
Settings: NMN 1 mM; post-ischemic brain subregion supernatant
Method: FIGS. 3A-3B show the effect of forebrain ischemia and nicotinamide mononucleotide administration on tissue NAD(H) levels. Mice were subjected to 10 min transient forebrain ischemia and allowed to recover for 24 h. After decapitation their brains were removed, the designated regions dissected and frozen in liquid nitrogen. One group of animals received nicotinamide mononucleotide at 1 hour of recovery. The NAD content was determined following perchloric acid extraction and utilized a coupled fluorometric cycling enzymatic assay (FIG. 3A). There is significant loss of NAD^+ in striatum, CA1, and DG regions. *p<0.05. […] Black: sham; white: ischemia; gray: NMN treatment. FIG. 3B: Effect of ischemia on CD38 activity. Brains of sham operated animals or animals subjected to 10 min of forebrain ischemia and 24 h of recovery were used for dissection of designated brain regions and homogenized. The CD38 enzyme activity was determined using 1-etheno-NAD that, when hydrolyzed by CD38, generates a fluorescent product. The rate of fluorescence increase corresponds to the CD38 enzyme activity. […]
Since nicotinamide mononucleotide is inhibiting the CD38 NAD^+ glycohydrolase activity, the activity of CD38 in post-ischemic tissue was assessed. The NAD^+ glycohydrolase activity was measured by monitoring the enhancement in fluorescence emission caused by the hydrolysis of 1-etheno-NAD (eNAD) (9). […]

## NC(=O)c1ccc[n+]([C@@H]2O[C@H](COP(=O)([O-])O)[C@@H](O)[C@H]2O)c1 [nicotinamide mononucleotide]
  eNAD hydrolysis (NAD+ glycohydrolase activity) in brain tissue homogenate: completely inhibited; also recorded: prevents tissue NAD^+ degradation

From US20120328526A1, “Modulation of Nad+ Activity in Neuropathophysiological Conditions and Uses Thereof” (University of Maryland, Baltimore, priority 2011, published 2012)
